Measurements reported in ChEMBL document CHEMBL1137630, “Development of resistance in wild-type and hypermutable Pseudomonas aeruginosa strains exposed to clinical pharmacokinetic profiles of meropenem and ceftazidime simulated in vitro” (Antimicrob Agents Chemother, 2007).
Converted amounts (≈) assume the structure as drawn. The source made the active and inactive calls. The rule behind the calls is not given here.

Key:
[1] = system: Pseudomonas aeruginosa; assay: Antibacterial activity against Pseudomonas aeruginosa PAO1 by CLSI broth microdilution method; format: functional
[2] = system: Pseudomonas aeruginosa; assay: Antibacterial activity against Pseudomonas aeruginosa PAO1/CAZ mutant by CLSI broth microdilution method; format: functional
[3] = system: Pseudomonas aeruginosa; assay: Antibacterial activity against Pseudomonas aeruginosa PAO1/MEM mutant by CLSI broth microdilution method; format: functional
[4] = system: Pseudomonas aeruginosa; assay: Antibacterial activity against hypermutable Pseudomonas aeruginosa 12-09-15/MEM mutant by broth microdilution method
[5] = system: Pseudomonas aeruginosa; assay: microbe, parasite or virus in culture; details: isolate 12-09-15
Description: Antibacterial activity against hypermutable Pseudomonas aeruginosa isolate 12-09-15 by CLSI broth microdilution method

[6] = system: Pseudomonas aeruginosa; assay: Antibacterial activity against Pseudomonas aeruginosa PAO1 in in vitro PK/PD model assessed as AAC (0 to 8 hrs) at 1 g infused thrice daily at 8 hrs interval measured after first dose; format: functional
[7] = %T>MIC against Pseudomonas aeruginosa PAO1 in in vitro PK/PD model at 1 g infused thrice daily at 8 hrs interval; format: functional
[8] = %T>MIC against hypermutable Pseudomonas aeruginosa isolate 12-09-15 in in vitro PK/PD model at 1 g infused thrice daily at 8 hrs interval; format: functional
[9] = Cmax in PK/PD in vitro model infused with 1g at 8hr intervals; format: ADME; design: dose 1 g; details: iv
[10] = Half life in in vitro PK/PD model at 1 g infused thrice daily at 8 hrs interval; format: ADME; details: iv
[11] = system: Pseudomonas aeruginosa; assay: Antibacterial activity against Pseudomonas aeruginosa PAO1 assessed as maximum bactericidal effect in in vitro PK/PD model by measuring change in bacterial count at 1 g infused every 8 hrs interval measured 1 hr after first dose relative to initial inoculum; format: functional
[12] = system: Pseudomonas aeruginosa; assay: Antibacterial activity against hypermutable Pseudomonas aeruginosa isolate 12-09-15 assessed as maximum bactericidal effect in in vitro PK/PD model by measuring change in bacterial count at 1 g infused every 8 hrs interval measured 3 hrs after first dose relative to initial inoculum; format: functional
[13] = system: Pseudomonas aeruginosa; assay: Antibacterial activity against Pseudomonas aeruginosa PAO1 assessed as reduction of bacterial count in in vitro PK/PD model at 1 g infused every 8 hrs interval measured after second dose relative to initial inoculum; format: functional
[14] = system: Pseudomonas aeruginosa; assay: Antibacterial activity against Pseudomonas aeruginosa PAO1 assessed as change in bacterial count in in vitro PK/PD model at 1 g infused every 8 hrs interval measured after 8 hrs relative to initial inoculum; format: functional, organism-based
[15] = system: Pseudomonas aeruginosa; assay: Antibacterial activity against hypermutable Pseudomonas aeruginosa isolate 12-09-15 assessed as change in bacterial count in in vitro PK/PD model at 1 g infused every 8 hrs interval measured after 8 hrs relative to initial inoculum; format: functional, organism-based
[16] = system: Pseudomonas aeruginosa; assay: Antibacterial activity against Pseudomonas aeruginosa PAO1 assessed as bacterial count in in vitro PK/PD model at 1 g infused every 8 hrs interval measured 40 hrs after first dose relative to initial inoculum; format: functional, organism-based
[17] = system: Pseudomonas aeruginosa; assay: Antibacterial activity against hypermutable Pseudomonas aeruginosa isolate 12-09-15 assessed as bacterial count in in vitro PK/PD model at 1 g infused every 8 hrs interval measured 40 hrs after first dose relative to initial inoculum; format: functional, organism-based
[18] = system: Pseudomonas aeruginosa; assay: Antibacterial activity against Pseudomonas aeruginosa PAO1 in in vitro PK/PD model assessed as AAC (0 to 24 hrs) at 1 g infused thrice daily at 8 hrs interval; format: functional
[19] = system: Pseudomonas aeruginosa; assay: Antibacterial activity against hypermutable Pseudomonas aeruginosa isolate 12-09-15 in in vitro PK/PD model assessed as AAC (0 to 24 hrs) at 1 g infused thrice daily at 8 hrs interval; format: functional
[20] = Ratio of Cmax in in vitro PK/PD model at 1 g infused at every 8 hrs intervals to MIC for Pseudomonas aeruginosa PAO1; format: functional
[21] = Ratio of Cmax in in vitro PK/PD model at 1 g infused at every 8 hrs intervals to MIC for hypermutable Pseudomonas aeruginosa isolate 12-09-15; format: functional
[22] = system: Pseudomonas aeruginosa; assay: Antibacterial activity against Pseudomonas aeruginosa PAO1 at 30 ug/disk in presence of cephalosporinase inhibitor cloxacillin by disk diffusion test; format: functional; details: read-out: DIZ
[23] = system: Pseudomonas aeruginosa; assay: Antibacterial activity against Pseudomonas aeruginosa PAO1 at 30 ug/disk in absence of cephalosporinase inhibitor cloxacillin by disk diffusion test; format: functional; details: read-out: DIZ
[24] = system: Pseudomonas aeruginosa; assay: Antibacterial activity against Pseudomonas aeruginosa PAO1/CAZ mutant at 30 ug/disk in presence of cephalosporinase inhibitor cloxacillin by disk diffusion test; format: functional; details: read-out: DIZ
[25] = system: Pseudomonas aeruginosa; assay: Antibacterial activity against Pseudomonas aeruginosa PAO1 in in vitro PK/PD model assessed as AAC (0 to 8 hrs) at 2 g infused thrice daily at 8 hrs interval measured after first dose; format: functional
[26] = %T>MIC against Pseudomonas aeruginosa PAO1 in in vitro PK/PD model at 2 g infused thrice daily at 8 hrs interval; format: functional
[27] = %T>MIC against hypermutable Pseudomonas aeruginosa 12-09-15 isolate in in vitro PK/PD model at 2 g infused thrice daily at 8 hrs interval; format: functional
[28] = system: Pseudomonas aeruginosa; assay: Antibacterial activity against Pseudomonas aeruginosa PAO1/CAZ mutant at 30 ug/disk in absence of cephalosporinase inhibitor cloxacillin by disk diffusion test; format: functional; details: read-out: DIZ
[29] = system: Pseudomonas aeruginosa; assay: Antibacterial activity against Pseudomonas aeruginosa PAO1 assessed as reduction of bacterial count in in vitro PK/PD model at 2 g infused every 8 hrs interval measured after first dose relative to initial inoculum; format: functional, organism-based
[30] = Cmax in PK/PD in vitro model infused with 2g at 8hr intervals; format: ADME; design: dose 2 g; details: iv
[31] = Half life in in vitro PK/PD model at 2 g infused thrice daily at 8 hrs interval; format: ADME; details: iv
[32] = system: Pseudomonas aeruginosa; assay: Antibacterial activity against Pseudomonas aeruginosa PAO1 assessed as reduction of bacterial count in in vitro PK/PD model at 2 g infused every 8 hrs interval measured after second dose relative to initial inoculum; format: functional
[33] = system: Pseudomonas aeruginosa; assay: Antibacterial activity against Pseudomonas aeruginosa PAO1 assessed as bacterial count in in vitro PK/PD model at 2 g infused every 8 hrs interval measured 40 hrs after first dose relative to initial inoculum; format: functional, organism-based
[34] = system: Pseudomonas aeruginosa; assay: Antibacterial activity against Pseudomonas aeruginosa PAO1 in in vitro PK/PD model assessed as AAC (0 to 24 hrs) at 2 g infused thrice daily at 8 hrs interval; format: functional
[35] = system: Pseudomonas aeruginosa; assay: Antibacterial activity against Pseudomonas aeruginosa PAO1 assessed as maximum bactericidal effect in in vitro PK/PD model by measuring change in bacterial count at 2 g infused every 8 hrs interval measured 17.5 hrs after initial dose relative to initial inoculum

CCN1CCN(C(=O)N[C@@H](C(=O)N[C@@H]2C(=O)N3[C@@H]2SC(C)(C)[C@@H]3C(=O)O)c2ccccc2)C(=O)C1=O [PIPERACILLIN]
MIC [1]: 4 µg/mL (≈ 7.73 µM)
MIC [2]: 64 µg/mL (≈ 124 µM)

C[C@H]1COc2c(N3CCN(C)CC3)c(F)cc3c(=O)c(C(=O)O)cn1c23.C[C@H]1COc2c(N3CCN(C)CC3)c(F)cc3c(=O)c(C(=O)O)cn1c23.O [LEVOFLOXACIN]
MIC [1]: 0.5 µg/mL
MIC [3]: 0.5 µg/mL
MIC [2]: 0.5 µg/mL

C[C@@H](O)[C@H]1C(=O)N2C(C(=O)O)=C(SCCNC=N)C[C@H]12 [IMIPENEM ANHYDROUS]
MIC [1]: 2 µg/mL (≈ 6.68 µM)
MIC [3]: 16 µg/mL (≈ 53.4 µM)
MIC [4]: 16 µg/mL (≈ 53.4 µM)
MIC [5]: 4 µg/mL (≈ 13.4 µM)

C[C@@H](O)[C@H]1C(=O)N2C(C(=O)O)=C(S[C@@H]3CN[C@H](C(=O)N(C)C)C3)[C@H](C)[C@H]12 [MEROPENEM]
AAC [6]: 5.3 deltalog10CFU/ml.hr
T>MIC [7]: 66.7%
T>MIC [8]: 41.7%
MIC [1]: 0.5 µg/mL (≈ 1.3 µM)
Cmax [9]: 56.1 µg/mL
half-life [10]: 0.45 h
deltalog10CFU [11]: -1.09 /ml
deltalog10CFU [12]: -1.23 /ml
deltalog10CFU [13]: -0.83 /ml
Activity [14]: inactive
Activity [15]: inactive
Activity [16]: inactive
Activity [17]: inactive
AAC [18]: -22.46 deltalog10CFU/ml.hr
AAC [19]: -19.58 deltalog10CFU/ml.hr
Ratio [20]: 112
Ratio [21]: 28.1
MIC [3]: 4 µg/mL (≈ 10.4 µM)
MIC [4]: 16 µg/mL (≈ 41.7 µM)
MIC [5]: 2 µg/mL (≈ 5.22 µM)

CC(C)(O/N=C(\C(=O)N[C@@H]1C(=O)N2C(C(=O)[O-])=C(C[n+]3ccccc3)CS[C@H]12)c1csc(N)n1)C(=O)O [CEFTAZIDIME]
zone of inhibition at 30 µg/disc [22]: 27 mm
zone of inhibition at 30 µg/disc [23]: 27 mm
zone of inhibition at 30 µg/disc [24]: 27 mm
AAC [25]: -0.19 deltalog10CFU/ml.hr
T>MIC [26]: 100%
T>MIC [27]: 45.8%
zone of inhibition at 30 µg/disc [28]: 17 mm
Activity [29]: inactive
MIC [1]: 2 µg/mL (≈ 3.66 µM)
Cmax [30]: 174 µg/mL
half-life [31]: 1.96 h
fold change (FC) [32]: 1
Activity [33]: inactive
AAC [34]: 9.29 deltalog10CFU/ml.hr
MIC [2]: 32 µg/mL (≈ 58.5 µM)
MIC [5]: 16 µg/mL (≈ 29.3 µM)
deltalog10CFU [35]: -1.28 /ml
